Measured values from patent US20230174556A1, “COMPOUNDS AS PROTEIN KINASE INHIBITORS” (Fochon Biosciences, Ltd., priority 2020, published 2023).

The compounds below were run on OCI-LY10 (PI3Kδ dependent) cells (assay: OCI-LY10 cell proliferation assay (MTS)). Conditions: Homo sapiens, OCI-Ly10, 72 h, inhibition of OCI-LY10 cells proliferation, 72 h incubation, MTS readout at 490 nm.
Format: cell-based
Description: MTS testing kit was purchased from Promega (Madison, WI, USA). The RPMI-1640, Fetal bovine serum and Penicillin-Streptomycin were purchased from BI (Biological Industries, Beit Haemek, Israel). Dimethyl sulfoxide (DMSO) was purchased from Sigma (St. Louis., MO, USA). OCI-LY10 cells were cultured in RPMI1640 supplemented with Penicillin-Streptomycin and 10% FBS.
To investigate whether a compound is able to inhibit the activity of PI3Kδ in cells, a mechanism-based assay using OCI-LY10 (PI3Kδ dependent) cells was developed. In this assay, inhibition of PI3Kδ was detected by the inhibition of OCI-LY10 cells proliferation. Cells were plated into 96-well plates at a density of 10000 cells/well. Plates were incubated at 37° C., with 5 % CO2 for 4 h. Compounds were serially diluted and added to the plates with the final compound concentrations as 10000, 3333.3, 1111.1, […], 123.5, 41.2, 13.7, 4.6 and 1.5 nM. Plates were incubated at 37° C., with 5 % CO2 for 72 h. 20 µl MTS was added into each well and the plates were incubated at 37° C., with 5 % CO2 for exactly 2 h. The absorbance was measured by a microplate reader at 490 nm. IC50 was calculated using GraphPad Prism 5.0 software.

| IC50 | Structure (SMILES) |
| --- | --- |
| 1 nM | Cc1csc2cc([C@H](C)n3nc(-c4ccc(OC(C)C)c(F)c4)c4c(N)ncnc43)c(-c3ccccc3)c(=O)n12 [Example 2-S, (S)-7-(1-(4-amino-3-(3-fluoro-4-isopropoxyphenyl)-1H-pyrazolo[3,4-d]pyrimidin-1-yl)ethyl)-3-methyl-6-phenyl-5H-thiazolo[3,2-a]pyridin-5-one] |
| 1 nM | CC(C)Oc1ccc(-c2nn([C@@H](C)c3cc4scc(Cl)n4c(=O)c3-c3cccc(F)c3)c3ncnc(N)c23)cc1F [Example 3, (S)-7-(1-(4-amino-3-(3-fluoro-4-isopropoxyphenyl)-1H-pyrazolo[3,4-d]pyrimidin-1-yl)ethyl)-3-chloro-6-(3-fluorophenyl)-5H-thiazolo[3,2-a]pyridin-5-one] |
| 1 nM | CC(C)Oc1ccc(-c2nn([C@@H](C)c3cc4scc(Cl)n4c(=O)c3-c3ccccc3)c3ncnc(N)c23)cc1F [Example 4, (S)-7-(1-(4-amino-3-(3-fluoro-4-isopropoxyphenyl)-1H-pyrazolo[3,4-d]pyrimidin-1-yl)ethyl)-3-chloro-6-phenyl-5H-thiazolo[3,2-a]pyridin-5-one] |
| 1 nM | COc1ccc(-c2nn([C@@H](C)c3cc4scc(C)n4c(=O)c3-c3cccc(F)c3)c3ncnc(N)c23)cc1NS(C)(=O)=O [Example 5, (S)-N-(5-(4-amino-1-(1-(6-(3-fluorophenyl)-3-methyl-5-oxo-5H-thiazolo[3,2-a]pyridin-7-yl)ethyl)-1H-pyrazolo[3,4-d]pyrimidin-3-yl)-2-methoxyphenyl)methanesulfonamide] |
| 1 nM | COc1ccc(-c2nn([C@@H](C)c3cc4scc(C)n4c(=O)c3-c3ccccc3)c3ncnc(N)c23)cc1NS(C)(=O)=O [Example 6, (S)-N-(5-(4-amino-1-(1-(3-methyl-5-oxo-6-phenyl-5H-thiazolo[3,2-a]pyridin-7-yl)ethyl)-1H-pyrazolo[3,4-d]pyrimidin-3-yl)-2-methoxyphenyl)meth anesulfonamide] |
| 4 nM | Cc1csc2nc([C@H](C)n3nc(-c4ccc(OC(C)C)c(F)c4)c4c(N)ncnc43)c(-c3cccc(F)c3)c(=O)n12 [Example 7, (S)-7-(1-(4-amino-3-(3-fluoro-4-isopropoxyphenyl)-1H-pyrazolo[3,4-d]pyrimidin-1-yl)ethyl)-6-(3-fluorophenyl)-3-methyl-5H-thiazolo[3,2-a]pyrimidin-5-one] |
| 6 nM | Cc1csc2nc([C@H](C)n3nc(-c4ccc(OC(C)C)c(F)c4)c4c(N)ncnc43)c(-c3ccccc3)c(=O)n12 [Example 8, (S)-7-(1-(4-amino-3-(3-fluoro-4-isopropoxyphenyl)-1H-pyrazolo[3,4-d]pyrimidin-1-yl)ethyl)-3-methyl-6-phenyl-5H -thiazolo[3,2-a]pyrimidin-5-one] |
| 1 nM | CC(C)Oc1ccc(-c2nn([C@H](c3cc4scc(Cl)n4c(=O)c3-c3cccc(F)c3)C3CC3)c3ncnc(N)c23)cc1F [Example 11, (S)-7-((4-amino-3-(3-fluoro-4-isopropoxyphenyl)-1H-pyrazolo[3,4-d]pyrimidin-1-yl)(cyclopropyl)methyl)-3-chlor o-6-(3-fluorophenyl)-5H-thiazolo[3,2-a]pyridin-5-one] |
| 18 nM | C[C@@H](c1cc2scc(Cl)n2c(=O)c1-c1cccc(F)c1)n1nc(-c2ccc(OC3CC3)c(F)c2)c2c(N)ncnc21 [Example 12, (S)-7-(1-(4-amino-3-(4-cyclopropoxy-3-fluorophenyl)-1H-pyrazolo[3,4-d]pyrimidin-1-yl)ethyl)-3-chloro-6-(3-fluor ophenyl)-5H-thiazolo[3,2-a]pyridin-5-one] |

Same assay, conditions: inhibition of OCI-LY10 cells proliferation, 72 h incubation, MTS readout at 490 nm

| IC50 | Structure (SMILES) |
| --- | --- |
| 2 nM | Cc1csc2cc(C(C)n3nc(-c4ccc(OC(C)C)c(F)c4)c4c(N)ncnc43)c(-c3ccccc3)c(=O)n12 (stereo not shown) [Example 2, 7-(1-(4-amino-3-(3-fluoro-4-isopropoxyphenyl)-1H-pyrazolo[3,4-d]pyrimidin-1-yl)ethyl)-3-methyl-6-phenyl-5H-thiazolo[3,2-a]pyridin-5-one] |
